Assay results taken from the supplement of paper PMC10331698.
± gives the standard deviation of the averaged measurements.

What was measured:
Assay in all cases: level (log10 ratio to DMSO vehicle control); higher = higher biomarker level / cell amount than vehicle control
[1] = compound: NC(=O)C(F)(F)C(F)(F)C(F)(F)C(F)(F)C(N)=O [Octafluoroadipamide]; conditions: in DMSO
Method: (§1)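 BioMAP Diversity Plus panel of 12 human primary cell co-culture systems (3C, 4H, LPS, SAg, BT, BF4T, BE3C, CASM3C, HDF3CGF, KF3CT, MyoF, Mphg). Compounds were added 1 h before stimulation and left for 24 h (MyoF 48 h; BT 72 h for soluble read-outs or 6 d for IgG). Biomarkers were read by ELISA, cytotoxicity by SRB, PBMC viability and proliferation by Alamar Blue. Each well value was divided by the mean of 8 DMSO control wells on the same plate and log10 transformed; duplicate blinded samples were tested at 4 concentrations.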

[2] = compound: FC(F)(F)C(F)(F)C(F)(F)C(F)(F)C(F)(F)C(F)(F)CC1CO1 [3-(Perfluorohexyl)-1,2-epoxypropane]; conditions: in DMSO
Method: as §1

[3] = compound: O=C(O)C(F)(F)C(F)(F)C(F)(F)C(F)(F)C(F)(F)C(F)(F)C(F)(F)C(F)(F)C(F)(F)C(F)F [11-H-Perfluoroundecanoic acid]; conditions: in DMSO
Method: as §1

[4] = compound: O=S(=O)(Cl)C(F)(F)C(F)(F)C(F)(F)C(F)(F)C(F)(F)C(F)(F)C(F)(F)C(F)(F)F [Perfluoro-1-octanesulfonyl chloride]; conditions: in DMSO
Method: as §1

[5] = compound: NC(=O)C(F)(F)C(F)(F)C(F)(F)C(F)F; conditions: in DMSO
Method: as §1

[6] = compound: FC(F)(F)C(F)(F)C(F)(F)C(F)(F)C(F)(F)C(F)(F)C(F)(F)I [1-Iodopentadecafluoroheptane]; conditions: in DMSO
Method: as §1

[7] = compound: NS(=O)(=O)C(F)(F)C(F)(F)C(F)(F)C(F)(F)C(F)(F)C(F)(F)F [Perfluorohexanesulfonamide]; conditions: in DMSO
Method: as §1

[8] = compound: C=CC(=O)OCC(F)(F)C(F)(F)C(F)(F)COC(=O)C=C [1H,1H,5H,5H-Perfluoro-1,5-pentanediol diacrylate]; conditions: 6700 nM; in DMSO
Method: as §1

[9] = compound: FC(F)(F)C(F)(F)C(F)(F)CC1CO1 [1H,1H-Heptafluorobutyl epoxide]; conditions: in DMSO
Method: as §1

[10] = compound: C=C(C)C(=O)OCCC(F)(F)C(F)(F)C(F)(F)C(F)(F)C(F)(F)C(F)(F)F [6:2 Fluorotelomer methacrylate]; conditions: in DMSO
Method: as §1

[11] = compound: O=S(=O)(O)C(F)(F)C(F)(F)C(F)(F)C(F)(F)C(F)(F)C(F)(F)C(F)(F)C(F)(F)C(F)(F)C(F)(F)F [Sodium perfluorodecanesulfonate]; conditions: in DMSO
Method: as §1

[12] = compound: COC(=O)C(F)(F)C(F)(F)OC(F)(C(F)(F)F)C(F)(F)OC(F)=C(F)F [Methyl perfluoro(3-(1-ethenyloxypropan-2-yloxy)propanoate)]; conditions: in DMSO
Method: as §1

[13] = compound: FC(F)(F)C(F)(F)C(F)(F)CI [Heptafluorobutyl iodide]; conditions: in DMSO
Method: as §1

[14] = compound: OCC(F)(F)C(F)(F)C(F)(F)CO [Hexafluoroamylene glycol]; conditions: in DMSO
Method: as §1

[15] = compound: O=S(=O)(F)C(F)(F)C(F)(F)C(F)(F)C(F)(F)C(F)(F)C(F)(F)C(F)(F)C(F)(F)F [Perfluorooctanesulfonyl fluoride]; conditions: in DMSO
Method: as §1

[16] = compound: O=C(O)C=CC(F)(C(F)(F)F)C(F)(F)F [3-(Perfluoroisopropyl)-2-propenoic acid]; conditions: in DMSO
Method: as §1

[17] = compound: FC(F)(F)C(F)(F)CNCC(F)(F)C(F)(F)F [Bis(1H,1H-perfluoropropyl)amine]; conditions: in DMSO
Method: as §1

[18] = compound: NC(=O)C(F)(F)C(F)(F)C(F)(F)C(F)(F)F [Nonafluoropentanamide]; conditions: in DMSO
Method: as §1

[19] = compound: O=S(=O)(O)CCC(F)(F)C(F)(F)C(F)(F)C(F)(F)C(F)(F)C(F)(F)F [6:2 Fluorotelomer sulfonic acid]; conditions: in DMSO
Method: as §1

## BF4T:MMP-9
[1]; 6700 nM
  level (log10): -0.0245 ± 0.005
[1]; 20000 nM
  level (log10): -0.016 ± 0.016
[1]; 60000 nM
  level (log10): 0.0115 ± 0.046
[2]; 6700 nM
  level (log10): 0.001 ± 0.0071
[2]; 20000 nM
  level (log10): 0.005 ± 0.0071
[2]; 60000 nM
  level (log10): 0.023 ± 0.04
[3]; 6700 nM
  level (log10): -0.042 ± 0.047
[3]; 20000 nM
  level (log10): -0.154 ± 0.021
[4]; 6700 nM
  level (log10): 0.0055 ± 0.0078
[4]; 20000 nM
  level (log10): 0.0065 ± 0.021
[4]; 60000 nM
  level (log10): -0.314 ± 0.083
[5]; 6700 nM
  level (log10): 0.013 ± 0.051
[5]; 20000 nM
  level (log10): -0.006 ± 0.055
[5]; 60000 nM
  level (log10): -0.001 ± 0.047
[6]; 6700 nM
  level (log10): -0.0345 ± 0.063
[6]; 20000 nM
  level (log10): -0.019 ± 0.013
[7]; 6700 nM
  level (log10): 0.0205 ± 0.021
[7]; 20000 nM
  level (log10): 0.011 ± 0.0085
[7]; 60000 nM
  level (log10): -0.003 ± 0.0085
[8]
  level (log10): -0.02 ± 0.021
[9]; 6700 nM
  level (log10): 0.0005 ± 0.011
[9]; 20000 nM
  level (log10): -0.0055 ± 0.022
[9]; 60000 nM
  level (log10): -0.008 ± 0.0085
[10]; 6700 nM
  level (log10): -0.0295 ± 0.096
[10]; 20000 nM
  level (log10): -0.033 ± 0.028
[10]; 60000 nM
  level (log10): -0.028 ± 0.062
[11]; 1500 nM
  level (log10): 0.0255 ± 0.0078
[11]; 4400 nM
  level (log10): -0.007 ± 0.045
[11]; 13000 nM
  level (log10): -0.0285 ± 0.015
[11]; 40000 nM
  level (log10): -0.058 ± 0.021
[12]; 6700 nM
  level (log10): -0.0175 ± 0.018
[12]; 20000 nM
  level (log10): 0.0125 ± 0.069
[13]; 6700 nM
  level (log10): -0.008 ± 0.0085
[13]; 20000 nM
  level (log10): -0.018 ± 0.013
[13]; 60000 nM
  level (log10): 0.0025 ± 0.03
[14]; 6700 nM
  level (log10): -0.0045 ± 0.011
[14]; 20000 nM
  level (log10): -0.0165 ± 0.0035
[14]; 60000 nM
  level (log10): 0.0105 ± 0.035
[15]; 6700 nM
  level (log10): 0.007 ± 0.02
[15]; 20000 nM
  level (log10): -0.007 ± 0.0099
[15]; 60000 nM
  level (log10): 0.015 ± 0.0028
[16]; 6700 nM
  level (log10): 0.0015 ± 0.029
[16]; 20000 nM
  level (log10): 0.004 ± 0.0099
[16]; 60000 nM
  level (log10): 0.025 ± 0.04
[17]; 6700 nM
  level (log10): -0.013 ± 0.0057
[17]; 20000 nM
  level (log10): -0.013 ± 0.0042
[17]; 60000 nM
  level (log10): 0.0085 ± 0.036
[18]; 6700 nM
  level (log10): -0.026 ± 0.068
[18]; 20000 nM
  level (log10): -0.051 ± 0.016
[18]; 60000 nM
  level (log10): 0.004 ± 0.017
[19]; 6700 nM
  level (log10): -0.0015 ± 0.036
[19]; 20000 nM
  level (log10): -0.0095 ± 0.0078
[19]; 60000 nM
  level (log10): 0.018 ± 0.024
